Laboratory results published in ChEMBL document CHEMBL4811220, “Investigation of the in vitro and in vivo efficacy of peptoid-based HDAC inhibitors with dual-stage antiplasmodial activity” (Eur J Med Chem, 2021).
pIC50: −log10 of the molar value. Activity calls are given as the source filed them. The calls are words filed in the database; no cut-off is given here.

Key:
Plasmodium falciparum [1] = experiment: microbe, parasite or virus in culture; type: functional, organism-based; details: 3D7, Erythrocyte
HepG2 = experiment: Cytotoxicity against human HepG2-A16-CD81EGFP cells assessed as inhibition of cell growth incubated for 24 hrs followed by medium transfer and incubation in multimode plate for 48 hrs by CellTiterGlo reagent based luminescence assay
[2] = Selectivity index, ratio of IC50 for cytotoxicity against human HepG2-A16-CD81EGFP cells to IC50 for antiplasmodial activity against drug-sensitive asexual intraerythrocytic stage of Plasmodium falciparum 3D7 infected in human O+ erythrocytes
Plasmodium berghei [3] = experiment: microbe, parasite or virus in culture; type: functional, organism-based
[4] = Selective index, ratio of IC50 for human HepG2-A16-CD81EGFP cells to IC50 for antiplasmodial activity against liver stage exo-erythrocytic forms of Plasmodium berghei sporozoites infected in human HepG2-A16-CD81EGFP cells
Histone deacetylase 1 = Histone deacetylase 1 (Homo sapiens, UniProt Q13547)
Description: Inhibition of C-terminal FLAG/His-tagged human recombinant HDAC1 (1 to 482 residues) expressed in baculovirus infected Sf9 cells using ZMAL (Z-Lys(Ac)-AMC) as fluorogenic substrate incubated for 90 mins by fluorescence based assay

[5] = molecular target: T1, Protein deacetylase HDAC6 (Homo sapiens, UniProt Q9UBN7); experiment: biochemical
T1 sequence (Q9UBN7 whole entry): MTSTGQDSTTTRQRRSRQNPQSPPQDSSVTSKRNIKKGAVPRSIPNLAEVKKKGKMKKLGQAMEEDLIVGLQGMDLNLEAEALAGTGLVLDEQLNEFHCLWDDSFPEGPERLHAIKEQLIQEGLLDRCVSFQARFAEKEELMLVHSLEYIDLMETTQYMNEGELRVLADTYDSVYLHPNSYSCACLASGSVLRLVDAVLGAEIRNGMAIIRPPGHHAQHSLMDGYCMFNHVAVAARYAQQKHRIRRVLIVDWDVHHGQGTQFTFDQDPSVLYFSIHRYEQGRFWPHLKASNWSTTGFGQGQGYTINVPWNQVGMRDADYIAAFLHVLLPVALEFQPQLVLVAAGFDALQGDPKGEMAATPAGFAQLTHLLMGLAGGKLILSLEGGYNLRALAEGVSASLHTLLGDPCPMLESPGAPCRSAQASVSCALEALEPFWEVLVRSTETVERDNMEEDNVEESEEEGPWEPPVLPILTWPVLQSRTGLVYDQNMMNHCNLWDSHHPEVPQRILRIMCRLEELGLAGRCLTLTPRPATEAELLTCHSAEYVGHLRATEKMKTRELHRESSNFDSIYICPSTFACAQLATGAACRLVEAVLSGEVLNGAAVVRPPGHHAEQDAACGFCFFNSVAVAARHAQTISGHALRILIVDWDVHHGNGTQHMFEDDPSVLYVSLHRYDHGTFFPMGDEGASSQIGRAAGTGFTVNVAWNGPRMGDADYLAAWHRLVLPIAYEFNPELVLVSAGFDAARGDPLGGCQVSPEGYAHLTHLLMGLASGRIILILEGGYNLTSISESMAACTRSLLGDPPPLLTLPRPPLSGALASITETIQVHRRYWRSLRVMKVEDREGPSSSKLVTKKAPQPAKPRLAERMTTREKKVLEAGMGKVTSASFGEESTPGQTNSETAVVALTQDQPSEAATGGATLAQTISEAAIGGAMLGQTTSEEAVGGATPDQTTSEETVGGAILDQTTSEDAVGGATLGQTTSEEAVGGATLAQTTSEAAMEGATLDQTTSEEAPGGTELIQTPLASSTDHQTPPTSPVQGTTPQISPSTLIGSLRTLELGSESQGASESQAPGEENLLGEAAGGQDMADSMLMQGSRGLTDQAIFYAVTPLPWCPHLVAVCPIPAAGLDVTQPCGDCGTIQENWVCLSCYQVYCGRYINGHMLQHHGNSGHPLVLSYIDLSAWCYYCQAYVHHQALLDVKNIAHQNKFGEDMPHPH
Description: Inhibition of N-terminal GST-tagged full length human recombinant HDAC6 expressed in baculovirus infected Sf9 cells using ZMAL (Z-Lys(Ac)-AMC) fluorogenic substrate incubated for 90 mins by fluorescence based assay

[6] = Intrinsic clearance in mouse liver microsomes measured upto 40 mins by LC-MS/MS analysis
[7] = Intrinsic clearance in human liver microsomes measured upto 40 mins by LC-MS/MS analysis; type: ADME, Microsome; details: read-out: CLH
Plasmodium falciparum [8] = experiment: Resistance index, ratio of IC50 for antiplasmodial activity against multidrug-resistant asexual intraerythrocytic stage of Plasmodium falciparum Dd2 to IC50 for antiplasmodial activity against drug-sensitive asexual intraerythrocytic stage of Plasmodium falciparum 3D7 infected in human O+ erythrocytes by [3H]-hypoxanthine incorporation assay; type: functional
[9] = Half life in mouse liver microsomes measured upto 40 mins by LC-MS/MS analysis
[10] = Half life in human liver microsomes measured upto 40 mins by LC-MS/MS analysis; type: ADME, Microsome
Plasmodium falciparum [11] = experiment: Antiplasmodial activity against multidrug-resistant asexual intraerythrocytic stage of Plasmodium falciparum Dd2 assessed as inhibition of parasite growth incubated for 48 hrs followed by addition of [3H]hypoxanthine for 24 hrs by [3H]hypoxanthine incorporation assay; type: functional, organism-based
Plasmodium berghei [12] = experiment: (§1) Antimalarial activity against Plasmodium berghei QIMR infected in BALB/c mouse assessed as reduction in peripheral blood parasitemia at 25 mg/kg, po bid for 4 days starting from 2 hrs post infection and measured on 4 to 6 days post-infection by Giemsa staining based microscopic analysis relative to control; type: functional; details: time 4-6 day
[13] = Selectivity index, ratio of IC50 for cytotoxicity against human HepG2-A16-CD81EGFP cells to IC50 for antiplasmodial activity against multidrug-resistant asexual intraerythrocytic stage of Plasmodium falciparum Dd2; type: toxicity, cell-based; details: read-out: Ratio IC50
[14] = tested on: Plasmodium falciparum 3D7; experiment: Inhibition of HDAC in trophozite-stage of Plasmodium falciparum 3D7 infected in erythrocytes assessed as hyperacetylation of histone H4 at lysine residue at 5 x IC50 incubated for 3 hrs by western blot analysis; type: cell-based
Plasmodium berghei [15] = experiment: as §1, with “10” for “25”, “qd” for “bid”, “post-infection” for “post infection”; details: read-out: INH
[16] = tested on: Plasmodium falciparum 3D7; experiment: Inhibition of HDAC in trophozite-stage of Plasmodium falciparum 3D7 infected in erythrocytes assessed as hyperacetylation of histone H4 at lysine residue at 5 x IC50 incubated for 3 hrs by western blot analysis relative to control; type: cell-based

Chain of Histone deacetylase 1 (Q13547 whole entry): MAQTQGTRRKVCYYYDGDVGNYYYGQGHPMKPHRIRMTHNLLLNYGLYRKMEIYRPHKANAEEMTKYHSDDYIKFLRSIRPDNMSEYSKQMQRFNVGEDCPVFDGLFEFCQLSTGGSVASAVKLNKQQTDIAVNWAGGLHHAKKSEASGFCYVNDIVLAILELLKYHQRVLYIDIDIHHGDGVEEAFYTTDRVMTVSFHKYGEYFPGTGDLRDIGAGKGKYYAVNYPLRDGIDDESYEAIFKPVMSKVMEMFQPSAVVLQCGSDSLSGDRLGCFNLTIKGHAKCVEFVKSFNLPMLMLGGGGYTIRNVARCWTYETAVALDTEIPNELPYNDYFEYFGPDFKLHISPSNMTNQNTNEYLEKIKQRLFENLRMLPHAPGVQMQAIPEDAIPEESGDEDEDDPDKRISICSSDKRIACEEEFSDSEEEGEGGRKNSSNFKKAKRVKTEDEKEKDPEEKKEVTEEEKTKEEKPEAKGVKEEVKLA

half-life at 40 min ([9]; microsomes) [min]	Structure (SMILES)	pIC50 (Plasmodium falciparum [1])	pIC50 (HepG2)	selectivity ratio [2]	pIC50 (Plasmodium berghei [3])	selectivity ratio [4]	pIC50 (Histone deacetylase 1)	pIC50 [5]	microsomal CLint at 40 min [6] [µL/min/mg]	microsomal CLint [7] [µL/min/mg]	Ratio IC50 (Plasmodium falciparum [8])	half-life at 40 min ([9]; liver microsomes) [min]	half-life [10] [min]	pIC50 (Plasmodium falciparum [11])	inhibition in vivo at 25 mg/kg (Plasmodium berghei [12]) [%]	selectivity ratio [13]	inhibition [14]	inhibition in vivo at 10 mg/kg/day (Plasmodium berghei [15]) [%]	fold change (FC) [16]
–	Cc1cc(C)cc(C(=O)N(CC(=O)N2CCCCC2)Cc2ccc(C(=O)NO)cc2)c1	6.29	4.46	69	5.18	5	5.39	6.89	–	–	–	–	–	–	–	–	–	–	–
–	CC(C)c1ccc(CC(=O)N(CC(=O)NC2CCCCC2)Cc2ccc(C(=O)NO)cc2)cc1	6.67	4.60	117	5.69	12	5.69	7.40	–	–	–	–	–	–	–	–	–	–	–
–	CNC(=O)CN(Cc1ccc(C(=O)NO)cc1)C(=O)c1ccc(C(C)C)cc1	7.80	5.04	573	6.32	19	7.00	7.22	6	5	0.1	271	347	8.70	33.3	4580	Active	–	–
–	CCN(CC)CCCC(C)Nc1ccnc2cc(Cl)ccc12 (stereo unspecified) [CHLOROQUINE]	–	–	–	–	–	–	–	–	–	–	–	–	–	–	–	–	100	–
–	CN(C)c1ccc(C(=O)N(Cc2ccc(C(=O)NO)cc2)C(C)(C)C(=O)NCc2ccccc2)cc1	6.79	< 4.30	> 311	5.37	> 12	6.36	7.15	–	–	–	–	–	–	–	–	–	–	–
–	CC(C)c1ccc(NC(=O)CN(Cc2ccc(C(=O)NO)cc2)C(=O)Cc2ccccc2)cc1	–	–	–	–	–	–	–	38	72	–	44.3	23.5	–	–	–	–	–	–
–	Cn1c(=O)c2c(ncn2C)n(C)c1=O [CAFFEINE]	–	–	–	–	–	–	–	–	2	–	–	1030	–	–	–	–	–	–
–	CC(C)c1ccc(C(=O)N(Cc2ccc(C(=O)NO)cc2)C(C)(C)C(=O)NC2CCCCC2)cc1	7.00	< 4.30	> 495	5.31	> 10	6.01	6.57	30	144	0.3	55.6	11.7	7.48	0.5	–	inactive	–	–
–	O=C(CN(Cc1ccc(C(=O)NO)cc1)C(=O)c1cccc2ccccc12)NCc1ccccc1	7.47	4.89	376	6.20	20	6.89	8.00	87	41	0.4	19.3	41.4	7.85	25.9	–	Active	–	–
–	Cc1ccccc1C(=O)N(CC(=O)NC12CC3CC(CC(C3)C1)C2)Cc1ccc(C(=O)NO)cc1	6.90	4.89	102	6.27	24	7.00	7.52	–	–	–	–	–	–	–	–	–	–	–
–	O=C(CN(Cc1ccc(C(=O)NO)cc1)C(=O)Cc1ccccc1)NC1CCCCC1	6.55	< 4.30	> 178	6.09	> 61	5.61	7.30	–	–	–	–	–	–	–	–	–	–	–
–	Cc1ccc(C(=O)N(CC(=O)NCc2ccccc2)Cc2ccc(C(=O)NO)cc2)c(C)c1	7.62	5.43	155	6.80	23	7.22	7.22	38	86	0.1	44.8	19.7	8.52	17.6	–	–	–	2
–	O=C(O)Cc1ccccc1Nc1c(Cl)cccc1Cl [DICLOFENAC]	–	–	–	–	–	–	–	–	248	–	–	6.8	–	–	–	–	–	–
–	Cc1cc(C)cc(C(=O)N(CC(=O)N(C)C)Cc2ccc(C(=O)NO)cc2)c1	5.98	< 4.30	> 48	5.08	–	5.10	6.64	–	–	–	–	–	–	–	–	–	–	–
–	O=C(CN(Cc1ccc(C(=O)NO)cc1)C(=O)Cc1ccccc1)NCc1ccccc1	6.67	4.66	103	6.04	24	6.22	7.52	–	–	–	–	–	–	–	–	–	–	–
–	CC(C)c1ccc(CC(=O)N(CC(=O)NCc2ccccc2)Cc2ccc(C(=O)NO)cc2)cc1	7.12	4.52	395	5.57	11	6.11	7.70	–	–	0.3	–	–	7.64	–	–	Active	–	–
–	CC(C)c1ccc(C(=O)N(Cc2ccc(C(=O)NO)cc2)C(C)(C)C(=O)NCc2ccccc2)cc1	6.85	< 4.30	> 352	5.06	> 6	6.55	7.22	–	–	–	–	–	–	–	–	–	–	–
–	CC(C)c1ccc(C(=O)N(CC(=O)NC23CC4CC(CC(C4)C2)C3)Cc2ccc(C(=O)NO)cc2)cc1	7.55	5.36	154	6.47	13	6.52	6.60	–	–	0.2	–	–	8.22	–	–	–	–	–
–	Cc1ccccc1C(=O)N(CC(=O)NCc1ccccc1)Cc1ccc(C(=O)NO)cc1	7.15	5.02	137	6.52	32	6.55	7.52	–	–	0.3	–	–	7.68	–	–	–	–	2
–	O=C(CCCCCCC(=O)Nc1ccccc1)NO [VORINOSTAT]	–	5.12	–	–	–	–	–	–	–	–	–	–	–	–	–	–	–	–
–	Cc1ccc(C(=O)N(CC(=O)NC2CCCCC2)Cc2ccc(C(=O)NO)cc2)c(C)c1	8.10	5.08	1040	7.22	139	6.59	7.40	94	139	0.5	17.9	12.2	8.40	31	–	inactive	–	–
54.3	CC(C)NCC(O)COc1cccc2ccccc12 (stereo unspecified) [PROPRANOLOL]	–	–	–	–	–	–	–	–	–	–	–	–	–	–	–	–	–	–
